From article PMC11775380, “Discovery of Novel Nav1.7-Selective Inhibitors with the 1H-Indole-3-Propionamide Scaffold for Effective Pain Relief” (Research, 2025)

Experiments:
[1] = tested on: acetic acid writhing pain model in mice; test: Acetic acid-induced writhing test; format: in vivo, ICR mice; details: 15 min before acetic acid, writhing counted 30 min
Source text: Acute pain was a common type of pain with considerable value for drug development. Here, 2 acute inflammatory pain models were used to verify the acute analgesic effect of WN2-R. One such model, the acetic acid writhing pain model in mice, is a well-established acute visceral pain model. It simulates clinically relevant intestinal discomfort by stimulating the abdominal mucosa and intestine with acetic acid and has been extensively used to screen analgesic or anti-inflammatory drugs. Based on this model, we evaluated the acute analgesic effect of WN2-R using 2 drug delivery methods, i.g. and […] (n = 6). […] Furthermore, the analgesic effect of WN2-R at the same dose was similar to that of the positive control drug PF-05089771, with no significant difference between these two. […] Three male and 3 female ICR mice were used in the acetic acid-induced writhing test. Mice were preadministered with either WN2-R (5 mg/kg i.g., 1 mg/kg i.m.), PF05089771 (5 mg/kg i.g., 1 mg/kg i.m.), or saline 15 min before i.p. injection of 0.2 ml of acetic acid (0.8%, V/V). Each mouse was then placed in an individual open polyvinyl cage (30 cm × 40 cm × 30 cm). The number of writhing responses, characterized by a wave of abdominal muscle contraction followed by hind limb extension, was recorded for 30 min after acetic acid injection. These responses served as an indication of nociceptive intensity. The percentage of inhibition was calculated using the following equation: Inhibition% = (Writhing Numbervehicle – Writhing Numberdrug)/Writhing Numbervehicle × 100% [15, 47].

[2] = tested on: formalin-induced acute inflammatory pain model in mice; test: Formalin-induced inflammation pain model; format: in vivo, ICR mice; details: 30 min before formalin
Protocol: The formalin-induced acute inflammatory pain model in mice, achieved through the plantar injection of formalin aqueous solution, is another widely used model for acute inflammatory pain. This model comprises 2 stages: an initial phase ([…]) where pain is triggered by formalin's direct stimulation of nociceptive receptors on sensory neurons, followed by a second phase (15 to 40 min) characterized by persistent inflammatory pain due to tissue damage. Similarly, both i.g. and i.m. methods were used to evaluate the effect of WN2-R in this model (n = 6) (Fig. 6B and I). […] These findings were consistent across repeated experiments.
To induce the pain response, 20 μl of formalin (5%, w/v) was injected subcutaneously into the right hind paw of ICR mice (3 male and 3 female). Prior to the formalin injection, mice were preadministered with WN2-R (5 mg/kg i.g., 1 mg/kg i.m.), PF05089771 (5 mg/kg i.g., 1 mg/kg i.m.), or saline 30 min beforehand. The duration of licking/biting the injected paw was recorded every 5 min, commencing immediately after the formalin injection and continuing for 40 min. Phase I and II in this assay corresponded to the nociceptive response observed between 0 and 5 min and between 10 and 40 min, respectively.

[3] = tested on: CFA inflammatory pain model of mice; test: CFA-induced inflammatory (chronic) pain model; format: in vivo, ICR mice; details: for Paw withdrawal threshold (PWT) at 1.5 h: 1.5 h post drug, 24 h after CFA
Protocol: The chronic pain model of mice was often used to simulate persistent pain in humans. In this model, chronic persistent pain was induced by injecting complete Freund’s adjuvant (CFA) into the right hind foot of mice. […] The chronic analgesic potential of WN2-R was evaluated using both i.g. and i.m. methods (n = 4). When administered by i.g., the PWTs of the WN2-R group and the PF-05089771 group reached their peak at 1.5 and 1 h after administration, respectively, and subsequently declined to the same level as the saline group at 2.5 h (Fig. 6D). […] When administered i.m., both the WN2-R and PF-05089771 groups reached peak PWTs at 1.5 h, and declined to the saline group level at 3 h (Fig. 6K). […] The mechanical allodynia of ICR mice (2 male and 2 female) was assessed prior to model construction using von Frey fibers according to the up–down method. Mice with paw withdraw thresholds (PWTs) remarkably deviating from the mean value were excluded from further experiments. Subsequently, 15 μl of CFA was unilaterally injected into the intraplantar surface of the right hind paw of each mice. After 24 h, the PWTs of the mice were assessed. During the i.g. administration of drugs or saline, PWTs were measured 0, 0.5, 1, 1.5, 2, and 2.5 h post drugs/saline administration. Similarly, during i.m. administration, PWTs were measured at 0, 0.5, 1, 1.5, 2, 2.5, and 3 h post drugs/saline administration.

[4] = tested on: SNI neuropathic pain model in mice; test: Spared nerve injury (SNI) neuropathic pain model; format: in vivo, C57 mice
Source text: Peripheral nerve injury models were developed to investigate the mechanisms of neuropathic pain. One such model, the spared nerve injury (SNI) neuropathic pain model in mice, involved ligating and transecting the […] and tibial nerves within the […] nerve, while leaving the sural nerve untouched. […] To evaluate the neuroanalgesic potential of WN2-R in this model, both i.g. and i.m. routes were used to evaluate the neuroanalgesic effect of WN2-R in this model (n = 5). […] In contrast, PF-05089771 reached its peak at 1 h (PWTs = 1.08 g) but then rapidly lost its efficacy, resembling the saline control group after 1 h. Throughout the experiment, the PWTs of the WN2-R group remained consistently higher than that of the PF-05089771 group (Fig. 6F and G). […] Subsequently, the efficacy of both drugs gradually declined, converging with the saline group after 3 h. Throughout the entire dosing period, the PWTs of the WN2-R group were slightly higher than that of the PF-05089771 group (Fig. 6M and N). […] To elucidate the time course of pain hypersensitivity induced by SNI, the behavioral responses (mechanical testing with von Frey fibers) were measured before surgery (baseline value) in C57 mice (5 female). Then, the mice underwent SNI surgery, which involved ligation and axotomy of the common peroneal and tibial nerves, while sparing the sural nerve. Sham-operated mice served as controls, with their nerves remaining intact. To confirm the presence of pain hypersensitivity in the SNI group, behavioral testing was carried out 14 days after SNI in each animal. Post drugs/saline administration, PWTs were measured at 0, 0.5, 1, 1.5, 2, 2.5, and 3 h for the i.g. route, and at 0, 0.5, 1, 2, 3, and 4 h for the i.m. route.

[5] = design: method as in PMID 28682065; details: positive control drug; cited from earlier work

Nc1[nH]ncc1-c1cc(Cl)ccc1Oc1cc(F)c(S(=O)(=O)Nc2cscn2)cc1Cl [PF-05089771, 4-[2-(5-amino-1H-pyrazol-4-yl)-4-chlorophenoxy]-5-chloro-2-fluoro-N-1,3-thiazol-4-ylbenzenesulfonamide, reference compound]
Analgesic rate (normalized number of writhing) ([1]; i.g., 5 mg/kg): 53.5%
Analgesic rate (normalized number of writhing) ([1]; i.p. (method: 1 mg/kg i.m.)): 51.9%
Licking time in phase I vs saline ([2]; i.g., 5 mg/kg): significantly reduced licking time
Licking time in phase II vs saline ([2]; i.g., 5 mg/kg): decreased effectiveness
Licking time in phase I vs saline ([2]; i.m., 1 mg/kg): significantly reduced licking time
Licking time in phase II vs saline ([2]; i.m., 1 mg/kg): significantly reduced licking time
Time at which PWT declined to the saline group level ([3]; i.g.): 2.5 h
Time of peak PWT after administration ([3]; i.g.): 1 h
Paw withdrawal threshold (PWT) at 1.5 h ([3]; i.g.): 1.32 g
Time at which PWT declined to the saline group level ([3]; i.m.): 3 h
Time of peak PWT after administration ([3]; i.m.): 1.5 h
Paw withdrawal threshold (PWT) at 1.5 h ([3]; i.m.): 1.83 g
Time of peak efficacy ([4]; i.g.): 1 h
Paw withdrawal threshold (PWTs) ([4]; i.g., 1 h post drug application, 14 days after SNI): 1.08 g
Time after which efficacy converged with the saline group ([4]; i.m.): 3 h
Time of peak efficacy ([4]; i.m.): 1 h
Paw withdrawal threshold (PWTs) at peak efficacy ([4]; i.m., 1 h post drug application, 14 days after SNI): 1.30 g
F (bioavailability) [5]: 27%
